Molecules are shown by their SMILES. The source made the active and inactive calls. Cut-off read from the data, not from the text of the source: actives have a measured IC50 and inactives only a lower limit.

In the assay the target is Envelope glycoprotein gp160 (Human immunodeficiency virus 1, UniProt Q6QLK5). Nature of the assay: inhibitors of HIV fusion peptide binding, primary screen, biochemical, uHTS, fluorescence dequenching (AID 1986).
Chain of Envelope glycoprotein gp160 (Q6QLK5 whole entry, the tested form may be a part): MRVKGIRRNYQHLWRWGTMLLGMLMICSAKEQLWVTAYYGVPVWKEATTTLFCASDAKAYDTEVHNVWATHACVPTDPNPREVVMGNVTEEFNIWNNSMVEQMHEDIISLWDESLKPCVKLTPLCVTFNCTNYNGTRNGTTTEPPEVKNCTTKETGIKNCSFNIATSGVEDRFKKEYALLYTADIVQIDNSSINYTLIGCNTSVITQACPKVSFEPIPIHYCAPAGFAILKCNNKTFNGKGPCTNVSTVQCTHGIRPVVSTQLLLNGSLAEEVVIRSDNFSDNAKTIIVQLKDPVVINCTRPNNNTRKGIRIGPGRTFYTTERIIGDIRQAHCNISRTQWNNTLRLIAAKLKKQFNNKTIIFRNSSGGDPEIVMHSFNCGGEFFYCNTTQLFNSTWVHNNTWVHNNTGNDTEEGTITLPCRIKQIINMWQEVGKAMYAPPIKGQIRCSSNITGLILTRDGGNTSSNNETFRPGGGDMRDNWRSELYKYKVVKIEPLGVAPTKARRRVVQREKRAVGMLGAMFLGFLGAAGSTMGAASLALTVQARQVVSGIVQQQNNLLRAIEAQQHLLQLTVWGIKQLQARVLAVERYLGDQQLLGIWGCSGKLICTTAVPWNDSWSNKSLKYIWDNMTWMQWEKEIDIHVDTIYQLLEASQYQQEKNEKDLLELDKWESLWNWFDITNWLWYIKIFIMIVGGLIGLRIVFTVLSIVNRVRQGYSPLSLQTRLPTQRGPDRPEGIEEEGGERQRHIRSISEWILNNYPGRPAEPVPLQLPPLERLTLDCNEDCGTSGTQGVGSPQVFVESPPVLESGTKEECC
As a reminder, the IC50 is the concentration at which inhibition is half-maximal. In the case of `O=C(NC(=S)Nc1ccccc1C(=O)O)c1ccc(-c2ccc(Br)cc2)o1`, the IC50 was 18.5 µM (active).
In the case of `O=C1NN(c2ccc(Cl)c(Cl)c2)C(=O)/C1=C/c1cccc(OC(=O)c2cccs2)c1`, the IC50 is 11.8 µM (active).
Regarding `O=C(O)c1ccc(NS(=O)(=O)c2ccc3c(c2)C2C=CCC2C(c2ccccc2F)N3)cc1` (centres undefined), the IC50 was 17.7 µM (active).
Take `O=C(CCCN1C(=O)/C(=C/c2cccs2)SC1=S)Nc1ccc(O)c(C(=O)O)c1`: the IC50 is 24.1 µM (active).

Values taken from ChEMBL document CHEMBL1201862, “PubChem BioAssay data set” (2004).
